Test results from patent US9302993B2, “8-hydroxy quinoline derivatives” (PRANA BIOTECHNOLOGY LIMITED, priority 2002, dated 2016).
Values after ≈ are worked out from the molar mass of the structure shown. Where two headings read alike, the source gives them in different places.

Experiments:
[1] = system: moderately severe AD patients; assay: Phase II clinical trial of PBT-1 in Alzheimer's disease (Example 21); format: in vivo, human; details: for Steady state pre-dose levels of PBT-1: blood; for difference in mean change from baseline ADAS-cog score of PBT-1 over placebo: more-severely affected groups
Excerpt: The performance of the less-severely affected group (ADAS-cog<25) deteriorated negligibly over this interval, so cognitive changes could not be discriminated in this stratum.
The study took place at the AD clinical trials unit, Mental Health Research Institute of Victoria and at the Royal Melbourne Hospital. Criteria for inclusion in the study were: informed consent; a diagnosis of probable AD by NINCDS-ADRDA criteria (McKhann et al., 1984); AD Assessment Scale-cognitive (ADAS-cog) (Rosen et al., 1984) score of 18-45; Mini Mental State Examination (MMSE) (Folstein et al., 1975) score of 10-24; on donepezil 5 mg or 10 mg for at least 6 months; relative or carrier willing and able to support the trial; able to complete trial examinations; primary sensorial functions intact.
The study was a double blind, placebo-controlled, parallel group randomized design. […] The duration of the study was 36 weeks.
Screening procedures consisted of a complete medical history, physical, neurological and ophthalmic examination, blood and urine tests and psychometric tests (ADAS-cog, MMSE). Nerve conduction tests and visual evoked responses were conducted between the screening and baseline visits to provide a baseline measurement. Blood was collected for ApoE allotyping, baseline plasma levels of metals and Aβ prior to randomization. All patients continued their study entry dose of donepezil and all patients received 100 mg vitamin B12 intramuscularly every four weeks.
Blood samples were collected by antecubital venepuncture except on weeks 12, 24 and 36 when they were collected by an indwelling catheter. […] Zn data from these intervals were therefore omitted from analysis.
The primary clinical efficacy variable was a change from baseline score on the ADAS-cog conducted at baseline and at weeks 4, 12, 24 and 36. This measure was chosen to allow comparability of treatment effects with current therapeutics such as donepezil, where efficacy trials also used ADAS-cog as their primary outcome measure (Rogers et al., 1998). Although numerous neuropsychological tests could be considered as secondary measures, it was necessary to avoid fatiguing the subjects at review. Therefore the only other cognitive test was the Mini-Mental State Exam (MMSE). The CIBIC+ (clinician interview based impression of change incorporating caregiver information), a subjective observational index was also conducted. Plasma Aβ, and plasma zinc and copper were all taken every four weeks.
Polystyrene plates were coated with mAb G210 (for Aβ40) or mAb G211 (for Aβ42). Plates were washed and biotinylated mAb WO2 was added. Bound antibody was detected with streptavidin-labelled Europium (Perkin Elmer, Vic Australia). The values obtained from triplicated wells were calculated based on standard curves generated on each plate. Plasma samples supplemented with synthetic Aβ1-40 and Aβ1-42 were also assayed to confirm measurement reliability across the concentration range of interest.
Metals were measured by inductively coupled plasma mass spectrometry as previously described (Cherny et al., 2001).
Standard adverse event reporting was conducted and biochemical tests, renal and liver function, complete blood examination, serum vitamin B12 and folate levels were documented at each visit. To assess for peripheral and optic neuropathy a neurological examination was conducted at each visit, and visual evoked responses, nerve conduction studies and ophthalmic examination were conducted at screening, week 16 and prior to the final trial visit. An ECG was done at screening and weeks 12, 24 and 36.
Data monitoring and management were undertaken by independent contractors (Kendle International and Health Research Solutions, Melbourne). Evidence for efficacy was indicated by a significant difference in change from baseline between treatment arms. […]

APP2576 transgenic mouse [2] = details: previous studies on transgenic mice, 20-30 mg/kg orally daily five days per week, 2-3 months; cited from earlier work
APP2576 transgenic mouse [3] = assay: Transgenic mouse brain immunohistochemistry, plaque abundance (Assay 15); format: in vivo
Excerpt: Assay 15. Transgenic Mouse Brain Immunohistochemistry
The APP2576 transgenic mouse (Hsiao et al., 1996) as referred to in Assay 11 were utilized in this assay. The contralateral formalin-fixed mouse brain tissue was coronally cut. Sections (10 μm) were taken from the corresponding sites and treated with 80% formic acid for antigen retrieval. The primary antibody used was monoclonal antibody 1E8, which recognizes epitopes between residues 18 and 22 of Aβ (SmithKline Beecham, UK). Immunoreactivity was developed with secondary antibody linked to horseradish peroxidase (using a 3,39-diaminobenzidinechromagen) (Dako) and alkaline phosphatase (using 5-bromo-4-chloro 3-indoxyl phosphate and nitroblue tetrazolium chloride chromagen) (Dako). Plaque abundance per section was assessed by two operators blinded to treatment according to the following scale:
1=plaques present but very sparse
2=several plaques present
3=numerous plaques visible in restricted areas
4=plaques abundant and not restricted to any particular area.
Intermediate values eg 2.5 were assigned where applicable.
Students' t ‘test was used for comparisons between groups.

Neuronal cortical cells = assay: Assay for test compound cytoxicity, MTS (Assay 3(d)); format: cell-based, mouse; details: BL6J×129sv, mouse, 4 days
[4] = system: Neuronal cortical cells treated with Aβ1-42; assay: Assay for Aβ neurotoxicity and Aβ neuroprotection (Assay 3(c)); format: cell-based, mouse; details: 20 uM Aβ1-42, 4 days, MTS
[5] = Turbidimetric solubility measurements (Assay 13); format: physicochemical; details: kinetic from dmso stock, 1% DMSO, nephelometry
Protocol: Turbidimetric Solubility Measurements
The solubility estimate was measured at both pH 2.0 and pH 6.5. This is within the pH range that can be anticipated along the proximal gastrointestinal tract in humans.
The compounds were dissolved in DMSO to appropriate concentrations and then spiked into either 0.01M HCl (approx. pH=2.0) or pH 6.5 isotonic phosphate buffer, the final DMSO concentration being 1%. Samples were then analysed via Nephelometry to determine a solubility range. [as per D. Bevan and R. S. Lloyd, Anal. Chem. 2000, 72, 1781-1787].

APP2576 transgenic mouse [6] = assay: Effect of administration of test compounds on Aβ deposits in transgenic animals (Assay 11); format: in vivo; parameters: concentration or dose not given beside the values; details: transgenic mouse brains
[7] = system: Aβ in extract of tissue from post mortem human AD brain; assay: Human brain amyloid solubilisation assay (Assay 9, BAS); format: biochemical; details: solubilising plaques relative to PBS
How it was run: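 Plaque-bearing post mortem AD cortex homogenised in ice-cold PBS pH 7.4 and spun 100,000×g, 30 min to separate PBS-soluble supernatant from insoluble pellet. Aβ in each fraction resolved on Tris-Tricine 10-20% gels, immunoblotted with W02 antibody and ECL, quantified by densitometry against synthetic Aβ40 standards (0.5, 1, 2 ng).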

[8] = E Log D, chromatographic method (Assay 13); format: physicochemical; details: SUPELCOSIL LC-ABZ column with octanol saturated mobile phase, pH 7.4; read-out: E Log D7.4
Protocol: Effective Log D values were measured using a chromatographic method employing a SUPELCOSIL LC-ABZ column using an octanol saturated mobile phase at pH 7.4.

In the case of `Oc1c(I)cc(Cl)c2cccnc12` [PBT-1], the “effect on plasma Cu” value ([1]; AD patients) is reported as “no effect”, the “elevation of total plasma Zn” value ([1]; AD patients) is reported as “≈ 30%” and the “Steady state pre-dose levels of PBT-1” value ([1]; total daily dosage 250 mg) is reported as 4.03 ± 2.10 µg/mL. The “Steady state pre-dose levels of PBT-1” value ([1]; total daily dosage 500 mg) was 6.74 ± 3.70 µg/mL, the “Steady state pre-dose levels of PBT-1” value ([1]; total daily dosage 750 mg) was 7.60 ± 2.15 µg/mL and the “Plasma Aβ42 change from baseline” value ([1]; from week 20 onwards) was “significant decline from baseline”. For the same compound, the “difference in mean change from baseline ADAS-cog score of PBT-1 over placebo” value ([1]; week 24) was 7.37, the “difference in mean change from baseline ADAS-cog score of PBT-1 over placebo” value ([1]; week 36) was 6.36 and the “effect of treatment in preventing cognitive deterioration” value ([1]; over 36 weeks, more-severely affected patients (baseline ADAS-cog≧25)) was “statistically significant”. The “inhibiting Aβ accumulation” value (APP2576 transgenic mouse [2]) was “markedly effective”.
In the case of `Oc1c(Cl)cc(Cl)c2ccc(-c3ccccn3)nc12` [compound 1052, 5,7-dichloro-8-hydroxy-2-(2-pyridyl)quinoline], the “% difference from control (sham treated animal)” value (APP2576 transgenic mouse [3]; plaque score) is reported as −8%, the Mean plaque score (APP2576 transgenic mouse [3]; scale 0 to 4) is reported as 3.2 and the “Test Compound Cytoxicity 1 uM” value (Neuronal cortical cells; 1 uM) is reported as 63. For the same compound, the “Test Compound Cytoxicity 10 uM” value (Neuronal cortical cells; 10 uM) was 32, the “% inhibition Abeta toxicity” value [4] was 19% and the solubility ([5]; aqueous buffer, pH 6.5 isotonic phosphate buffer, read-out: Solubility pH 6.5) was under 3.1 µg/mL. For the same compound, the solubility ([5]; simulated gastric fluid, 0.01M HCl (approx. pH 2.0), read-out: Solubility (μg/mL) 0.01M HCl) was 6.3 to 12.5 µg/mL (≈ 21.6 to 42.9 µM), the “Insoluble fraction. % change compared with control.” value (APP2576 transgenic mouse [6]; insoluble Aβ) was −22% and the “Soluble fraction. % change compared with control.” value (APP2576 transgenic mouse [6]; soluble Aβ) was “negligible”. The “BAS Score” value [7] was “+” and the chromatographic logD [8] was 2.85.
